What all share (format): in vivo
The test system of one assay is Bidens pilosa. In words: Greenhouse trial, post-emergence, visual herbicidal effect. As for the experimental part:
(§1) The weed seeds were sown in pots (diameter 8 cm) with sandy loam soil and germinated under optimum conditions. The herbides were applied by the post-emergence method onto the pots with the cultures, at a spray volume of 300 I/ha. The herbicides were applied on their own and in combination. The trial was conducted in a greenhouse under optimum growth conditions. The herbicidal effects were assessed visually by comparison of untreated and treated plants. The percentages mean: 0%=no effects, 100%=the plants die off completely). The percentages are used to calculate interactions between individual treatments and combination treatment according to S. R. Colby, Weeds 15, pages 20 to 22 (1967).
(§2) The abbreviations denote: • a.i.=active ingredient • E^C=expected value according to Colby (E^C=A+B−A×B100) • Δ=difference (%) of the measured value to the expected value (%) (measured value minus expected value)
(§3) Evaluation: • measured value E is greater than E^C:→synergism (+Δ) • measured value E equals E^C:→additive effect • measured value E is smaller than E^C:→antagonism (−Δ)

For another assay, the system named is Brachiaria platyphylla. Described as above. As for the experimental part: as §1, §2, §3
The subject of another assay is Portulaca oleracea. As to the kind of experiment: Field trial, post-emergence, visual scoring. The note with it: alone. As for the experimental part: (§4) The tests were conducted outdoors (plot trials, 10 m^2 per plot, 2 repetitions, spray application with 200-300 liters of water per hectare). Crops and broad-leaved weeds/weed grasses were sown under customary field conditions. In addition, a natural weed flora also appeared. Application was by the post-emergence method. The application rates of the herbicidally active compounds applied on their own or in combinations are likewise shown in the tables below. Evaluations were by visual scoring (using a 0-100% scale) after application by comparison of treated and untreated test variants.
as §2, §3

Another assay has as its system Ambrosia artemisiifolia. In words: Greenhouse trial, post-emergence, visual herbicidal effect. The note with it: alone. On the procedure:
as §1, §2, §3

In the next assay the test system is Galium aparine. As to the kind of experiment: Field trial, post-emergence, visual scoring. The note with it: Table 5-92, field, alone, 25 g of a.i./ha. On the procedure: as §4, §2, §3
The subject of another assay is Setaria viridis. In words: Greenhouse trial, post-emergence, visual herbicidal effect. As for the experimental part: as §1, §2, §3
For a further assay, the system named is Digitaria sanguinalis. The assay is described as above. The note with it: Table 5-36, greenhouse, alone, 6 g of a.i./ha. On the procedure:
as §1, §2, §3

Another assay deals with Polygonum convolvulus. The description is as above. As to conditions: alone. On the procedure:
as §1, §2, §3

For another assay, the system named is Xanthium strumarium. The description is as above. As to conditions: alone. As for the experimental part:
as §1, §2, §3

Another assay deals with Pharbitis purpurea. Described as above. As to conditions: Table 5-98, greenhouse, alone. On the procedure:
as §1, §2, §3

Where [1] appears, read: Table 5-97, greenhouse, alone, 0.5 g of a.i./ha.
Where [2] appears, read: Table 5-91, greenhouse, 2 g of a.i./ha.
Setting [3] is: Table 5-100, greenhouse, 1 g of a.i./ha.
The mark [4] stands for this setting: Table 5-101, greenhouse, 1 g of a.i./ha.
The mark [5] stands for this setting: Table 5-99, greenhouse, 1 g of a.i./ha.

`CCS(=O)(=O)c1ccc(C(=O)Nc2nnnn2C)c(Cl)c1OCCCOC` [A1-83]: the “Activity [%] against Bidens pilosa” value in the assay on Bidens pilosa (Table 5-96, greenhouse, alone, 1 g of a.i./ha) was 35%. Also, the “Activity [%] against Brachiaria platyphylla” value in the assay with Brachiaria platyphylla (setting [1]) was 0%.
Turning to bicyclopyrone, the “Activity [%] against Portulaca oleracea” value in the assay on Portulaca oleracea (Table 5-18, field, 25 g of a.i./ha) is 23%.
On to `CCn1nnnc1NC(=O)c1ccc(C(F)F)c(SC)c1OC` [A1-79], for which, in the assay with Ambrosia artemisiifolia (setting [2]), the “Activity [%] against Ambrosia artemisiifolia” value turned out to be 30%. For the same molecule, the “Activity [%] against Bidens pilosa” value in the assay with Bidens pilosa (Table 5-90, greenhouse, alone, 2 g of a.i./ha) came out at 20%. Further, in the assay with Galium aparine, the “Activity [%] against Galium aparine” value was determined as 70%.
In the case of `COc1cc(OC)nc(NC(=O)NS(=O)(=O)c2cc(NC=O)ccc2C(=O)N(C)C)n1` [foramsulfuron], the “Activity [%] against Portulaca oleracea” value with Portulaca oleracea (Table 5-14, field, 16 g of a.i./ha) worked out at 0%.
As for `COC(=O)c1csc(C)c1S(=O)(=O)NC(=O)n1nc(OC)n(C)c1=O` [thiencarbazone-methyl], the “Activity [%] against Ambrosia artemisiifolia” value in the assay with Ambrosia artemisiifolia (Table 5-52, greenhouse, 0.25 g of a.i./ha) worked out at 0%; in the assay on Ambrosia artemisiifolia (Table 5-75, greenhouse, 0.25 g of a.i./ha), 0%. The “Activity [%] against Bidens pilosa” value in the assay with Bidens pilosa (Table 5-96, greenhouse, alone, 0.5 g of a.i./ha) is 40%. The “Activity [%] against Brachiaria platyphylla” value in the assay on Brachiaria platyphylla (setting [1]) was 75%.
Turning to `Nc1c([N+](=O)[O-])ccc(Oc2ccccc2)c1Cl` [aclonifen], the “Activity [%] against Portulaca oleracea” value in the assay with Portulaca oleracea (Table 5-22, field, 1200 g of a.i./ha) is recorded as 0%.
With `CCS(=O)(=O)c1c(C(F)(F)F)ccc(C(=O)Nc2ncnn2C)c1Cl` [A2-10], in the assay with Bidens pilosa (Greenhouse, dosage 2 g of a.i./ha), the “Activity [%] against Bidens pilosa” value was found to be 50%. The “Activity [%] against Brachiaria platyphylla” value in the assay on Brachiaria platyphylla (Greenhouse, dosage 1 g of a.i./ha, Table 5-110) turned out to be 35%; with Brachiaria platyphylla (Greenhouse, dosage 2 g of a.i./ha, Table 5-109) it was 0%.
Consider `C/C(=N\NC(=O)Nc1cc(F)cc(F)c1)c1ncccc1C(=O)O` [diflufenzopyr], for which the “Activity [%] against Ambrosia artemisiifolia” value in the assay with Ambrosia artemisiifolia (Table 5-93, greenhouse, 25 g of a.i./ha) was 50%. In the assay on Brachiaria platyphylla (Greenhouse, dosage 25 g of a.i./ha, Table 5-113), the “Activity [%] against Brachiaria platyphylla” value was 60%. Also, the “Activity [%] against Setaria viridis” value in the assay with Setaria viridis (Greenhouse, dosage 12.5 g of a.i./ha) was 50%.
Regarding `COc1cc(OC)nc(NC(=O)NS(=O)(=O)c2ncccc2C(=O)N(C)C)n1` [nicosulfuron], in the assay on Portulaca oleracea (Table 5-19, field, 20 g of a.i./ha), the “Activity [%] against Portulaca oleracea” value came out at 30%.
Take `Cc1c(C(=O)Nc2nnnn2C)ccc(S(C)(=O)=O)c1C1=NOCC1` [A1-24]: the “Activity [%] against Digitaria sanguinalis” value in the assay on Digitaria sanguinalis amounted to 50%. For the same molecule, the “Activity [%] against Polygonum convolvulus” value with Polygonum convolvulus (Table 5-37, greenhouse, 6 g of a.i./ha) came to 0%.
For the molecule `CSc1c(C(F)(F)F)ccc(C(=O)Nc2nnnn2C)c1Cl` [A1-85], the “Activity [%] against Ambrosia artemisiifolia” value in the assay on Ambrosia artemisiifolia (setting [3]) came to 50%. Further, the “Activity [%] against Xanthium strumarium” value with Xanthium strumarium (setting [4]) stood at 25%.
Consider `CCc1c(C(=O)Nc2nnnn2C)ccc(C(F)(F)F)c1SC` [A1-33], for which the “Activity [%] against Polygonum convolvulus” value with Polygonum convolvulus (Table 5-44, greenhouse, 4 g of a.i./ha) was determined as 0%. Besides, the “Activity [%] against Setaria viridis” value in the assay with Setaria viridis (Table 5-43, greenhouse, alone, 2 g of a.i./ha) turned out to be 75%.
For the molecule `COCc1cnc(C2=NC(C)(C(C)C)C(=O)N2)c(C(=O)O)c1` (centres unmarked) [imazamox], the “Activity [%] against Ambrosia artemisiifolia” value in the assay on Ambrosia artemisiifolia (setting [2]) came to 10%; with Ambrosia artemisiifolia (setting [3]) it was 0%; in the assay with Ambrosia artemisiifolia (Table 5-102, greenhouse, 2 g of a.i./ha), 0%. Also, the “Activity [%] against Bidens pilosa” value in the assay with Bidens pilosa (Table 5-46, greenhouse, alone, 1 g of a.i./ha) is 10%; with Bidens pilosa (Table 5-47, greenhouse, alone, 2 g of a.i./ha) it was 20%; with Bidens pilosa (Table 5-90, greenhouse, alone, 1 g of a.i./ha), 10%. For the same molecule, the “Activity [%] against Brachiaria platyphylla” value with Brachiaria platyphylla (Table 5-45, greenhouse, alone, 2 g of a.i./ha) came to 10%. For the same molecule, the “Activity [%] against Pharbitis purpurea” value in the assay on Pharbitis purpurea (1 g of a.i./ha) came to 15%. Moreover, the “Activity [%] against Xanthium strumarium” value in the assay with Xanthium strumarium (setting [5]) is 0%; in the assay with Xanthium strumarium (setting [4]) it was 10%; with Xanthium strumarium (Table 5-103, greenhouse, 2 g of a.i./ha), 0%.
With `COc1c(C(=O)Nc2nnnn2C)ccc(C(F)F)c1S(C)(=O)=O` [A1-80], the “Activity [%] against Ambrosia artemisiifolia” value in the assay with Ambrosia artemisiifolia (Table 5-93, greenhouse, 1 g of a.i./ha) was determined as 25%.
For `CCS(=O)(=O)c1cccnc1S(=O)(=O)NC(=O)Nc1nc(OC)cc(OC)n1` [rimsulfuron], the “Activity [%] against Portulaca oleracea” value in the assay on Portulaca oleracea (Table 5-20, field, 6 g of a.i./ha) was determined as 0%.
Take `CCn1nnnc1NC(=O)c1ccc(C)c([S+](C)[O-])c1Cl` (centres unmarked) [A1-84]: the “Activity [%] against Pharbitis purpurea” value with Pharbitis purpurea (2 g of a.i./ha) amounted to 30%. In addition, the “Activity [%] against Xanthium strumarium” value in the assay with Xanthium strumarium (setting [5]) was found to be 10%.
Consider `CS(=O)(=O)c1ccc(C(=O)C2C(=O)CCCC2=O)c([N+](=O)[O-])c1` [mesotrione], for which the “Activity [%] against Portulaca oleracea” value in the assay with Portulaca oleracea (Table 5-15, field, 25 g of a.i./ha) was determined as 0%.
